These results are taken from US12600709B2, “Nonpeptide somatostatin type 5 receptor agonists and uses thereof” (Crinetics Pharmaceuticals, Inc., priority 2019, dated 2026).

Experiment [1] has as its target T1, human somatostatin receptor subtype 5 (Homo sapiens, UniProt P35346).
T1 construct: expressed in transfected cells
Nature of the experiment: cAMP assay for SST5R (inhibition of cAMP in CHO-K1 cells). The format is cell-based. The note with it: for EC50: inhibition of cAMP via human SST5 receptor, read-out: SST5 potency; for Fold selectivity for SST5 vs SST2: class symbols, SST5 receptor over SST2 receptor. The essentials:
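CHO-K1 cells stably expressing human SSTR5 were treated 20 min at 37 °C with compounds plus 1.6 μM NKH477 in HBSS, 0.5 mM HEPES pH 7.4, 0.1% BSA, 0.2 mM IBMX. Lysate cAMP measured by HTRF against a standard curve; EC50 from cAMP-versus-concentration plots.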

Experiment [2] concerns the target T2, human somatostatin receptor subtype 2 (Homo sapiens, UniProt P30874).
T2 construct: expressed in transfected cells
The experiment is described as follows: cAMP assay for SST2R (inhibition of cAMP in CHO-K1 cells). The note with it: Table B; inhibition of cAMP via human SST2 receptor; read-out: SST2 potency. The format is cell-based. In a few lines: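 CHO-K1 cells stably expressing human SSTR2, plated 4 days prior, treated 20 min at 37° C with 1.6 μM NKH477 plus compound dilutions in HBSS/HEPES pH 7.4/0.1% BSA/0.2 mM IBMX. Lysate cAMP measured by HTRF against standard curve; EC50 from concentration-response.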

Structures are written as SMILES. Like-named read-outs stand apart in the source and are kept apart here. Bounds are passed on as bounds.

T2 sequence (P30874 whole entry): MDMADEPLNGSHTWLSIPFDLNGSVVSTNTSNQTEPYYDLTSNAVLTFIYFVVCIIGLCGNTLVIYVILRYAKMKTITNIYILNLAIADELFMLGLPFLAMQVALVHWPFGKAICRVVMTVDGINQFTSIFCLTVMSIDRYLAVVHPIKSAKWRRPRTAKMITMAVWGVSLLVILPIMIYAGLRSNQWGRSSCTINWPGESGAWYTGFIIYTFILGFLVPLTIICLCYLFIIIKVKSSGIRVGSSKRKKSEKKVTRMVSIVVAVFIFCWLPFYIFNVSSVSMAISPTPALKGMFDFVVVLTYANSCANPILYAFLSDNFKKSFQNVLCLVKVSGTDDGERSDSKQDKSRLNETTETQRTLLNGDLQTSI
T1 sequence (P35346 whole entry): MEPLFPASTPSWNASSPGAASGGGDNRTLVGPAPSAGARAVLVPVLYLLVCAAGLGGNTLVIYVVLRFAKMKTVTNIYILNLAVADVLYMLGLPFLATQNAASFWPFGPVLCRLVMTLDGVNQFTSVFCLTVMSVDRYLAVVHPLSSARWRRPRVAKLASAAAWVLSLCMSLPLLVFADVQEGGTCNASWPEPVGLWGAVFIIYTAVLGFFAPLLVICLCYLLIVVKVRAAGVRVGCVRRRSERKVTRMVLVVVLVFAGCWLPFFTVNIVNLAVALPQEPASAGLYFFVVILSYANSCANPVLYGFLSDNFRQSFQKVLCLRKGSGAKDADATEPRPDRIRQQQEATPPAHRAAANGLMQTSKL

On to `COc1ncc(C(=O)NC23CC(F)(C2)C3)c(N2CC[C@H](N)C2)c1-c1cc(F)cc(F)c1` [1-196, 4-[(3S)-3-aminopyrrolidin-1-yl]-5-(3,5-difluorophenyl)-N-{3-fluorobicyclo[1.1.1]pentan-1-yl}-6-methoxypyridine-3-carboxamide], for which the figures for the EC50 in experiment [1] (Table A), in experiment [1] (Table B) and in experiment [2] were less than 10 nM, less than 10 nM and greater than 1000 nM, respectively. Also, the “Fold selectivity for SST5 vs SST2” value in experiment [1] (Table B) was “+++ (+++=>500)”.
As for `COc1cc(C#N)cc(-c2c(C(F)(F)F)ncc(C(=O)N[C@@H](C)C3CC3)c2N2CC[C@](C)(N)C2)c1` [1-197, 4-[(3S)-3-amino-3-methylpyrrolidin-1-yl]-5-(3-cyano-5-methoxyphenyl)-N-[(1S)-1-cyclopropylethyl]-6-(trifluoromethyl)pyridine-3-carboxamide], the EC50 in experiment [1] (Table A) was less than 10 nM; in experiment [1] (Table B) it was less than 10 nM; in experiment [2], 100 to 1000 nM. Besides, in experiment [1] (Table B), the “Fold selectivity for SST5 vs SST2” value is recorded as “+++ (+++=>500)”.
With `C[C@H](NC(=O)c1cnc(C(F)(F)F)c(-c2cc(F)cc(Cl)c2)c1N1CC[C@H](N)C1)C1CC1` [1-198, 4-[(3S)-3-aminopyrrolidin-1-yl]-5-(3-chloro-5-fluorophenyl)-N-[(1S)-1-cyclopropylethyl]-6-(trifluoromethyl)pyridine-3-carboxamide], the results for the EC50 in experiment [1] (Table A), in experiment [1] (Table B) and in experiment [2] were less than 10 nM, less than 10 nM and 10 to 100 nM, respectively. Besides, in experiment [1] (Table B), the “Fold selectivity for SST5 vs SST2” value is “++ (++=100 to 499)”.
With `C[C@H](NC(=O)c1cnc(C(F)(F)F)c(-c2cc(F)cc(F)c2)c1N1CC[C@H](N)C1)C1CC1` [1-199, 4-[(3S)-3-aminopyrrolidin-1-yl]-N-[(1S)-1-cyclopropylethyl]-5-(3,5-difluorophenyl)-6-(trifluoromethyl)pyridine-3-carboxamide], the EC50 in experiment [1] (Table A) was less than 10 nM; in experiment [1] (Table B) it was less than 10 nM; in experiment [2], 100 to 1000 nM. For the same compound, the “Fold selectivity for SST5 vs SST2” value in experiment [1] (Table B) is listed as “+++ (+++=>500)”.
In the case of `CCOC(=O)COc1ncc(C(=O)NC2CCC(F)(F)CC2)c(N2CC[C@H](N)C2)c1-c1cc(F)cc(F)c1` [1-200, ethyl 2-({4-[(3S)-3-aminopyrrolidin-1-yl]-5-[(4,4-difluorocyclohexyl)carbamoyl]-3-(3,5-difluorophenyl)pyridin-2-yl}oxy)acetate], the EC50 in experiment [1] (Table A) is less than 10 nM; in experiment [1] (Table B), less than 10 nM; in experiment [2], 100 to 1000 nM. Further, the “Fold selectivity for SST5 vs SST2” value in experiment [1] (Table B) is recorded as “+++ (+++=>500)”.
`CCOC(=O)CCOc1ncc(C(=O)NC2CCC(F)(F)CC2)c(N2CC[C@H](N)C2)c1-c1cc(F)cc(F)c1` [1-201, ethyl 3-({4-[(3S)-3-aminopyrrolidin-1-yl]-5-[(4,4-difluorocyclohexyl)carbamoyl]-3-(3,5-difluorophenyl)pyridin-2-yl}oxy)propanoate]: the EC50 is less than 10 nM in experiment [1] (Table A), less than 10 nM in experiment [1] (Table B) and greater than 1000 nM in experiment [2]. Further, the “Fold selectivity for SST5 vs SST2” value in experiment [1] (Table B) is “+++ (+++=>500)”.
Regarding `CCOC(=O)CCCOc1ncc(C(=O)NC2CCC(F)(F)CC2)c(N2CC[C@H](N)C2)c1-c1cc(F)cc(F)c1` [1-202, ethyl 4-({4-[(3S)-3-aminopyrrolidin-1-yl]-5-[(4,4-difluorocyclohexyl)carbamoyl]-3-(3,5-difluorophenyl)pyridin-2-yl}oxy)butanoate], the EC50 in experiment [1] (Table A) is less than 10 nM; in experiment [1] (Table B), less than 10 nM; in experiment [2], greater than 1000 nM. The “Fold selectivity for SST5 vs SST2” value in experiment [1] (Table B) was “+++ (+++=>500)”.
Take `CCOc1cc(-c2c(C(F)(F)F)ncc(C(=O)N[C@@H](C)C3CC3)c2N2CC[C@](C)(N)C2)ccn1` [1-206, 4-[(3S)-3-amino-3-methylpyrrolidin-1-yl]-N-[(1S)-1-cyclopropylethyl]-2′-ethoxy-2-(trifluoromethyl)-[3,4′-bipyridine]-5-carboxamide]: the results for the EC50 in experiment [1] (Table A), in experiment [1] (Table B) and in experiment [2] were less than 10 nM, less than 10 nM and greater than 1000 nM, respectively. Also, in experiment [1] (Table B), the “Fold selectivity for SST5 vs SST2” value is “+++ (+++=>500)”.
With `COc1cc(-c2c(C(F)(F)F)ncc(C(=O)N[C@@H](C)C3CC3)c2N2CC[C@](C)(N)C2)ccn1` [1-208, 4-[(3S)-3-amino-3-methylpyrrolidin-1-yl]-N-[(1S)-1-cyclopropylethyl]-2′-methoxy-2-(trifluoromethyl)-[3,4′-bipyridine]-5-carboxamide], the EC50 in experiment [1] (Table A) was less than 10 nM; in experiment [1] (Table B), less than 10 nM; in experiment [2] it was 100 to 1000 nM. Also, in experiment [1] (Table B), the “Fold selectivity for SST5 vs SST2” value is given as “+++ (+++=>500)”.
Consider `C[C@]1(N)CCN(c2c(C(=O)NC3CCCCC3)cnc(C(F)(F)F)c2-c2cc(F)cc(F)c2)C1` [1-210, 4-[(3S)-3-amino-3-methylpyrrolidin-1-yl]-N-cyclohexyl-5-(3,5-difluorophenyl)-6-(trifluoromethyl)pyridine-3-carboxamide], for which the results for the EC50 in experiment [1] (Table A), in experiment [1] (Table B) and in experiment [2] were less than 10 nM, less than 10 nM and 10 to 100 nM, respectively. In experiment [1] (Table B), the “Fold selectivity for SST5 vs SST2” value was “+++ (+++=>500)”.
Regarding `C[C@H](NC(=O)c1cnc(C(F)(F)F)c(-c2cc(F)cc(F)c2)c1N1CC[C@H](N)C1)C(F)(F)F` [1-212, 4-[(3S)-3-aminopyrrolidin-1-yl]-5-(3,5-difluorophenyl)-6-(trifluoromethyl)-N-[(2S)-1,1,1-trifluoropropan-2-yl]pyridine-3-carboxamide], the EC50 in experiment [1] (Table A) is less than 10 nM; in experiment [1] (Table B) it was less than 10 nM; in experiment [2], 100 to 1000 nM. Moreover, the “Fold selectivity for SST5 vs SST2” value in experiment [1] (Table B) is reported as “+++ (+++=>500)”.
In the case of `N[C@H]1CCN(c2c(C(=O)NC3CCCCC3)cnc(C(F)(F)F)c2-c2cc(F)cc(F)c2)C1` [1-213, 4-[(3S)-3-aminopyrrolidin-1-yl]-N-cyclohexyl-5-(3,5-difluorophenyl)-6-(trifluoromethyl)pyridine-3-carboxamide], the values for the EC50 in experiment [1] (Table A), in experiment [1] (Table B) and in experiment [2] were less than 10 nM, less than 10 nM and 100 to 1000 nM, respectively. Further, the “Fold selectivity for SST5 vs SST2” value in experiment [1] (Table B) is “+++ (+++=>500)”.
As for `N[C@H]1CCN(c2c(C(=O)NC3CCC(F)(F)CC3)cnc(C(F)(F)F)c2-c2cc(F)cc(F)c2)C1` [1-214, 4-[(3S)-3-aminopyrrolidin-1-yl]-N-(4,4-difluorocyclohexyl)-5-(3,5-difluorophenyl)-6-(trifluoromethyl)pyridine-3-carboxamide], the figures for the EC50 in experiment [1] (Table A), in experiment [1] (Table B) and in experiment [2] were less than 10 nM, less than 10 nM and greater than 1000 nM, respectively. In addition, the “Fold selectivity for SST5 vs SST2” value in experiment [1] (Table B) is on record as “+++ (+++=>500)”.
On to `C[C@H](NC(=O)c1cnc(C(F)(F)F)c(-c2cc(Cl)cc(Cl)c2)c1N1CC[C@H](N)C1)C1CC1` [1-215, 4-[(3S)-3-aminopyrrolidin-1-yl]-N-[(1S)-1-cyclopropylethyl]-5-(3,5-dichlorophenyl)-6-(trifluoromethyl)pyridine-3-carboxamide], for which the EC50 in experiment [1] (Table A) is less than 10 nM; in experiment [1] (Table B), less than 10 nM; in experiment [2] it was 100 to 1000 nM. Further, in experiment [1] (Table B), the “Fold selectivity for SST5 vs SST2” value is given as “+++ (+++=>500)”.
Turning to `N[C@H]1CCN(c2c(C(=O)NC34CC(F)(C3)C4)cnc(C(F)(F)F)c2-c2cc(F)cc(F)c2)C1` [1-216, 4-[(3S)-3-aminopyrrolidin-1-yl]-5-(3,5-difluorophenyl)-N-{3-fluorobicyclo[1.1.1]pentan-1-yl}-6-(trifluoromethyl)pyridine-3-carboxamide], the EC50 in experiment [1] (Table A) is less than 10 nM; in experiment [1] (Table B) it was less than 10 nM; in experiment [2], greater than 1000 nM. Further, the “Fold selectivity for SST5 vs SST2” value in experiment [1] (Table B) is on record as “+++ (+++=>500)”.
With `C[C@]1(N)CCN(c2c(C(=O)NC34CC(F)(C3)C4)cnc(C(F)(F)F)c2-c2cc(F)cc(F)c2)C1` [1-217, 4-[(3S)-3-amino-3-methylpyrrolidin-1-yl]-5-(3,5-difluorophenyl)-N-{3-fluorobicyclo[1.1.1]pentan-1-yl}-6-(trifluoromethyl)pyridine-3-carboxamide], the EC50 is less than 10 nM in experiment [1] (Table A), less than 10 nM in experiment [1] (Table B) and 100 to 1000 nM in experiment [2]. In addition, in experiment [1] (Table B), the “Fold selectivity for SST5 vs SST2” value was “+++ (+++=>500)”.
For the compound `CC(NC(=O)c1cnc(C#N)c(-c2cc(F)cc(F)c2)c1N1CC[C@H](N)C1)C(F)(F)F` (stereo partly drawn) [1-226, 4-[(3S)-3-aminopyrrolidin-1-yl]-6-cyano-5-(3,5-difluorophenyl)-N-(1,1,1-trifluoropropan-2-yl)pyridine-3-carboxamide], the EC50 in experiment [1] (Table A) was less than 10 nM; in experiment [1] (Table B), less than 10 nM; in experiment [2] it was 100 to 1000 nM. The “Fold selectivity for SST5 vs SST2” value in experiment [1] (Table B) is “++ (++=100 to 499)”.
Regarding `COc1ncc(C(=O)N[C@@H](C)C(F)(F)F)c(N2CC[C@](C)(N)C2)c1-c1cc(F)cc(Cl)c1` [1-228, 4-[(3S)-3-amino-3-methylpyrrolidin-1-yl]-5-(3-chloro-5-fluorophenyl)-6-methoxy-N-[(2S)-1,1,1-trifluoropropan-2-yl]pyridine-3-carboxamide], the figures for the EC50 in experiment [1] (Table A), in experiment [1] (Table B) and in experiment [2] were less than 10 nM, less than 10 nM and 10 to 100 nM, respectively. In addition, the “Fold selectivity for SST5 vs SST2” value in experiment [1] (Table B) was “+++ (+++=>500)”.
Regarding `COc1ncc(C(=O)N[C@@H](C)C2CC2)c(N2CC[C@](C)(N)C2)c1-c1cc(F)cc(Cl)c1` [1-229, 4-[(3S)-3-amino-3-methylpyrrolidin-1-yl]-5-(3-chloro-5-fluorophenyl)-N-[(1S)-1-cyclopropylethyl]-6-methoxypyridine-3-carboxamide], the values for the EC50 in experiment [1] (Table A), in experiment [1] (Table B) and in experiment [2] were less than 10 nM, less than 10 nM and 10 to 100 nM, respectively. In experiment [1] (Table B), the “Fold selectivity for SST5 vs SST2” value is “+++ (+++=>500)”.
